# Measurements taken from patent publication US7563801B2, “Pharmaceutical formulations: salts of 8-[{1-(3,5-Bis-(trifluoromethyl)phenyl)-ethoxy}-methyl]-8-phenyl-1,7-diaza-spiro[4.5]decan-2-one and treatment methods using the same” (Schering Corporation, priority 2006, dated 2009).
# Key:
# [1] = Second study: 10, 25 or 50 mg per day for 10 days in healthy volunteers, pharmacokinetics on days 1 and 10; assay type: in vivo, human; conditions: for Cmax / AUC / Tmax / half-life: plasma, oral; for Cmax: read-out: Cmax (mean maximum plasma concentration); for AUC: footnote: 0 to 72 hours post administration, read-out: AUC (area under the plasma concentration time curve); for Tmax: read-out: Tmax (median time of maximum plasma concentration); for half-life: read-out: Half Life T ½ (converted)
# Protocol: In a second study, three cohorts of 8 healthy volunteers each were administered 10, 25, or 50 mg per day for each of 10 days. Administration in every case followed a 10 hour fast. Blood samples were collected from each volunteer at predose (hour 0) and 0.25, 0.5, 0.75, 1, 1.5, 2, 3, 4, 6, 8, 12, 16, 24, 36, 48, and 72 hours on each of days 1 and 10.
# [2] = Single dose rising study of the encapsulated formulation in healthy human volunteers, pharmacokinetics; assay type: in vivo; conditions: for AUC / Cmax / Tmax / half-life: plasma, oral capsule; for AUC: 0 to 72 hours post administration, read-out: AUC (area under the plasma concentration time curve); for Cmax: read-out: Cmax (mean maximum plasma concentration); for Tmax: read-out: Tmax (median time of maximum plasma concentration); for half-life: read-out: Half Life T ½ (converted)
# Protocol: Another aspect of the present invention is the provision of a pharmaceutical formulation comprising a hydrochloride monohydrate salt of Formula II in a capsule oral dosage form which has a Pharmacokinetic (PK) profile obtained under single dose rising rate study conditions in accordance with Table VIII (average of eight study subjects).
# Blood samples were collected from each volunteer at predose (hour 0) and 0.25, 0.5, 0.75, 1, 1.5, 2, 3, 4, 6, 8, 12, 16, 24, 36, 48, and 72 hours. The serum drug levels of the volunteers receiving active drug are present graphically in FIG. 2.
# [3] = human, 10 mg per day, human, 10 mg per day, Day 1
# [4] = human, 10 mg per day, human, 10 mg per day, Day 10
# [5] = human, 25 mg per day, human, 25 mg per day, Day 1
# [6] = human, 25 mg per day, human, 25 mg per day, Day 10
# [7] = human, 50 mg per day, human, 50 mg per day, Day 1
# [8] = human, 50 mg per day, human, 50 mg per day, Day 10
structure (smiles),measurement,setting,value
"C[C@@H](OC[C@@]1(c2ccccc2)CC[C@]2(CCC(=O)N2)CN1)c1cc(C(F)(F)F)cc(C(F)(F)F)c1 [(5S,8S)-8-[{(1R)-1-(3,5-Bis-(trifluoromethyl)phenyl]-ethoxy}-methyl]-8-phenyl-1,7-diazaspiro[4,5]decan-2-one]",Absorption,"[1]; human, 10, 25 or 50 mg per day for 10 days",rapidly absorbed
same,Accumulation relative to the single dose,"[1]; human, daily dosing for 10 days",approximately 5 fold
same,Cmax,"[1]; human, 10 mg per day, human, 10 mg per day, Day 1, after 10 hour fast",48.6 ng/mL
same,AUC,[1]; [3],673 ng·h/mL
same,Tmax,[1]; [3],3 h
same,Cmax,"[1]; human, 10 mg per day, human, 10 mg per day, Day 10, after 10 hour fast",180 ng/mL
same,AUC,[1]; [4],3590 ng·h/mL
same,Tmax,[1]; [4],3 h
same,Cmax,"[1]; human, 25 mg per day, human, 25 mg per day, Day 1, after 10 hour fast",139 ng/mL
same,AUC,[1]; [5],1950 ng·h/mL
same,Tmax,[1]; [5],2 h
same,Cmax,"[1]; human, 25 mg per day, human, 25 mg per day, Day 10, after 10 hour fast",491 ng/mL
same,AUC,[1]; [6],9720 ng·h/mL
same,Tmax,[1]; [6],2 h
same,Cmax,"[1]; human, 50 mg per day, human, 50 mg per day, Day 1, after 10 hour fast",254 ng/mL
same,AUC,[1]; [7],3400 ng·h/mL
same,Tmax,[1]; [7],3 h
same,Cmax,"[1]; human, 50 mg per day, human, 50 mg per day, Day 10, after 10 hour fast",895 ng/mL
same,AUC,[1]; [8],17700 ng·h/mL
same,Tmax,[1]; [8],2.5 h
same,half-life,"[1]; human, 10 mg per day, Day 10",238 h
same,half-life,"[1]; human, 50 mg per day, Day 10",172 h
same,AUC,[2]; single dose 5 mg,931 ng·h/mL
same,Cmax,[2]; single dose 5 mg,27.3 ng/mL
same,Tmax,[2]; single dose 5 mg,2 h
same,AUC,[2]; single dose 10 mg,1820 ng·h/mL
same,Cmax,[2]; single dose 10 mg,52.7 ng/mL
same,Tmax,[2]; single dose 10 mg,2.5 h
same,AUC,[2]; single dose 25 mg,17200 ng·h/mL
same,Cmax,[2]; single dose 25 mg,119 ng/mL
same,half-life,[2]; single dose 25 mg,183 h
same,Tmax,[2]; single dose 25 mg,2.5 h
same,AUC,[2]; single dose 50 mg,33600 ng·h/mL
same,Cmax,[2]; single dose 50 mg,276 ng/mL
same,half-life,[2]; single dose 50 mg,171 h
same,Tmax,[2]; single dose 50 mg,3 h
same,AUC,[2]; single dose 100 mg,74400 ng·h/mL
same,Cmax,[2]; single dose 100 mg,475 ng/mL
same,half-life,[2]; single dose 100 mg,181 h
same,Tmax,[2]; single dose 100 mg,2 h
same,AUC,[2]; single dose 200 mg,148000 ng·h/mL
same,Cmax,[2]; single dose 200 mg,944 ng/mL
same,half-life,[2]; single dose 200 mg,169 h
same,Tmax,[2]; single dose 200 mg,4 h
same,Absorption,[2]; single oral doses 5 to 200 mg,rapidly absorbed
